Some test systems named below: ACHN; BT-549; CCRF-CEM; HCT-15; IGROV-1; M14; MDA-MB-231; MDA-MB-435; MOLT-4; NCI-H23; NCI-H522; OVCAR-4; OVCAR-5; SK-MEL-28; SK-OV-3; SNB-19; T47D; TK-10; UACC-257; NCI-H226.
Common to all, as to assay: inhibition of tumour cell growth, NCI panel, 48 h

The results in this text go back to ChEMBL document CHEMBL1201862, “PubChem BioAssay data set” (2004).

Molecules are shown by their SMILES.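 The compound was tested at five concentrations on cells cultured in 96-well plates, with a 48-hour exposure period. The concentration for 50% growth inhibition is given as GI50.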 Activity calls are given as the source filed them. Rule as the data show it: active = GI50 up to about 1.1 µM and inactive = higher. A value given as a limit tells only on which side of the number the result lay.

As for `COC1=CC2(C=CC1=O)CCNC1=C2C(=O)c2nc[nH]c2C1=O` (stereo not drawn), the GI50 is > 100 µM (inactive) in the test with ACHN; > 100 µM (inactive) in the test with BT-549; > 100 µM (inactive) in the test on CCRF-CEM; above 100 µM in the test on HCT-15; > 100 µM (inactive) with IGROV-1; > 100 µM (inactive) with M14. Also, the GI50 is > 100 µM (inactive) in the test on MDA-MB-231; > 100 µM (inactive) in the test with MDA-MB-435; > 100 µM (inactive) in the test on MOLT-4; > 100 µM (inactive) in the test on NCI-H23; 32.3 µM (inactive) in the test on NCI-H522; > 100 µM (inactive) in the test with OVCAR-4. In addition, the GI50 in the test on OVCAR-5, in the test on SK-MEL-28, in the test on SK-OV-3, with SNB-19, in the test with T47D and in the test with TK-10 was > 100 µM (inactive) each time. For the same compound, the GI50 with UACC-257 was > 100 µM (inactive).
Turning to `COc1ccc(-c2cc(-c3cc4cc(Br)ccc4nc3Cl)c(C#N)c(N)n2)cc1`, the GI50 in the test with BT-549 was > 12.5 µM (inactive); in the test with CCRF-CEM, > 12.5 µM (inactive); in the test with HCT-15, above 12.5 µM; in the test with IGROV-1, > 12.5 µM (inactive); with M14, > 12.5 µM (inactive); with MDA-MB-435, > 12.5 µM (inactive). For the same compound, the GI50 in the test on MOLT-4 is 9.66 µM (inactive); in the test with NCI-H226 it was > 12.5 µM (inactive); in the test with NCI-H23, > 12.5 µM (inactive); in the test with NCI-H522, > 12.5 µM (inactive); in the test on OVCAR-4, > 12.5 µM (inactive); in the test with OVCAR-5, 10.7 µM (inactive). For the same compound, the GI50 in the test with SK-MEL-28, with SK-OV-3, with SNB-19 and in the test on T47D was > 12.5 µM (inactive) throughout.
With `CN(C)c1ncnc2c1ncn2CCn1cnc2c(N(C)C)ncnc21`, the GI50 in the test on ACHN is > 100 µM (inactive); with BT-549 it was > 100 µM (inactive); in the test with CCRF-CEM, > 100 µM (inactive); with HCT-15 it was above 100 µM; in the test with IGROV-1, > 100 µM (inactive); in the test with M14, > 100 µM (inactive). Moreover, the GI50 is > 100 µM (inactive) with MDA-MB-231; > 100 µM (inactive) in the test on MDA-MB-435; < 0.01 µM (active) with MOLT-4; > 100 µM (inactive) with NCI-H23; > 100 µM (inactive) with NCI-H522; > 100 µM (inactive) with OVCAR-4. The GI50 in the test on OVCAR-5, in the test with SK-MEL-28, in the test on SK-OV-3, with SNB-19, in the test on T47D and in the test with TK-10 was > 100 µM (inactive) in each case. Besides, the GI50 with UACC-257 is > 100 µM (inactive).
With `COc1cc2nc(Nc3cccc(Br)c3)nc(Nc3cccc(Br)c3)c2cc1OC`, the GI50 in the test with ACHN was 16 µM (inactive); with BT-549 it was 17 µM (inactive); in the test on CCRF-CEM, 22.2 µM (inactive); in the test with HCT-15 it was 17.7 µM; in the test on IGROV-1 it was 15.1 µM (inactive); in the test with M14, 18.2 µM (inactive). For the same compound, the GI50 in the test with MDA-MB-231 was 21.8 µM (inactive); in the test with MDA-MB-435 it was 19.7 µM (inactive); with MOLT-4, 20.4 µM (inactive); in the test with NCI-H23 it was 17.7 µM (inactive); in the test with NCI-H522, 16.7 µM (inactive); with OVCAR-4, 15.7 µM (inactive). The GI50 with OVCAR-5 was 23.1 µM (inactive); in the test with SK-MEL-28 it was 17.2 µM (inactive); in the test with SK-OV-3, 19.2 µM (inactive); in the test on SNB-19, 16.8 µM (inactive); in the test on T47D, 17.1 µM (inactive); in the test on TK-10, 21.5 µM (inactive). Besides, the GI50 with UACC-257 is > 10 µM (inactive).
Take `COc1ccccc1NC(=S)Nc1cccc(C)n1`: the GI50 in the test with BT-549 is > 100 µM (inactive); in the test with CCRF-CEM it was > 100 µM (inactive); in the test with HCT-15, above 100 µM; in the test with IGROV-1 it was 31.8 µM (inactive); in the test on M14, > 100 µM (inactive); in the test on MDA-MB-435, > 100 µM (inactive). Besides, the GI50 in the test with MOLT-4 is > 100 µM (inactive); in the test with NCI-H226, 36.9 µM (inactive); in the test with NCI-H522, 2.84 µM (inactive); with OVCAR-4 it was > 100 µM (inactive); in the test on OVCAR-5, > 100 µM (inactive); with SK-MEL-28 it was > 100 µM (inactive). Moreover, the GI50 in the test on SK-OV-3, in the test on SNB-19, in the test on T47D, in the test with TK-10 and in the test on UACC-257 was > 100 µM (inactive) in each case.
As to `CC(C)S(=O)(=O)ON1C(=O)c2ccc(N(C)C)cc2C1=O`, the GI50 in the test with ACHN was 15.6 µM (inactive); in the test on CCRF-CEM it was 0.918 µM (active); in the test with HCT-15, 13.6 µM; with IGROV-1 it was 20.8 µM (inactive); with M14, 17.2 µM (inactive); in the test on MDA-MB-231, 6.17 µM (inactive). The GI50 is 2.04 µM (inactive) in the test on MDA-MB-435; 2.12 µM (inactive) in the test on MOLT-4; 25.2 µM (inactive) in the test with NCI-H226; 27.7 µM (inactive) in the test with NCI-H23; 1.52 µM (inactive) with NCI-H522; 17.7 µM (inactive) in the test on OVCAR-4. Moreover, the GI50 in the test with OVCAR-5 was 18.8 µM (inactive); in the test with SK-MEL-28, 21.4 µM (inactive); in the test on SK-OV-3 it was > 50.7 µM (inactive); with SNB-19, 40.4 µM (inactive); in the test with T47D it was 9.4 µM (inactive); in the test with TK-10 it was 20.5 µM (inactive). Besides, the GI50 with UACC-257 was 20.1 µM (inactive).
Regarding `CN(C)CCCOC(=O)C(O)(Cc1ccccc1)C1CC1` (stereo not drawn), the GI50 with ACHN was > 100 µM (inactive); with CCRF-CEM it was > 100 µM (inactive); in the test with HCT-15, above 100 µM; in the test on IGROV-1, > 100 µM (inactive); with M14, > 100 µM (inactive); in the test on MDA-MB-231 it was > 100 µM (inactive). For the same compound, the GI50 with MDA-MB-435, in the test on MOLT-4, in the test on NCI-H226, in the test on NCI-H23, in the test with NCI-H522 and in the test with OVCAR-4 was > 100 µM (inactive) throughout. Besides, the GI50 in the test on OVCAR-5, with SK-MEL-28, in the test with SK-OV-3, in the test on SNB-19, with T47D and with TK-10 was > 100 µM (inactive) each time. In addition, in the test on UACC-257, the GI50 was > 100 µM (inactive).
With `C[C@@H]1OC(=O)C[C@H]2CC(=O)N(CCC3CN(C(=O)c4ccccc4)c4ccccc43)C[C@@H]21` (stereo partly drawn), the GI50 in the test on ACHN was > 100 µM (inactive); with BT-549 it was > 100 µM (inactive); in the test on HCT-15, above 100 µM; with IGROV-1, > 100 µM (inactive); with M14, > 100 µM (inactive); with MDA-MB-231, > 100 µM (inactive). The GI50 in the test on MDA-MB-435, with MOLT-4, with NCI-H23, with NCI-H522, with OVCAR-4 and in the test with OVCAR-5 was > 100 µM (inactive) in each case. In addition, the GI50 in the test on SK-MEL-28, in the test on SK-OV-3, with SNB-19, with T47D, in the test with TK-10 and in the test on UACC-257 was > 100 µM (inactive) each time.
Turning to `COC(=O)CSC1CC(=O)c2c(Cl)sc(Cl)c21` (stereo not drawn), the GI50 in the test on ACHN is > 100 µM (inactive); in the test with BT-549 it was > 100 µM (inactive); in the test on CCRF-CEM, > 100 µM (inactive); with HCT-15 it was above 100 µM; with IGROV-1, > 100 µM (inactive); with M14, > 100 µM (inactive). The GI50 in the test with MDA-MB-231, in the test on MDA-MB-435, with MOLT-4, in the test with NCI-H23, in the test with NCI-H522 and in the test on OVCAR-4 was > 100 µM (inactive) in each case. For the same compound, the GI50 in the test with OVCAR-5, with SK-MEL-28, in the test on SK-OV-3, with SNB-19, with T47D and in the test on TK-10 was > 100 µM (inactive) in each case. The GI50 in the test on UACC-257 is > 100 µM (inactive).
Consider `CN(C(=O)c1ccc(Cl)s1)C(=S)N(C)C(=O)c1ccc(Cl)s1`, for which the GI50 was > 10 µM (inactive) in the test with ACHN; > 10 µM (inactive) with BT-549; > 10 µM (inactive) in the test on CCRF-CEM; above 10 µM in the test with HCT-15; > 10 µM (inactive) with IGROV-1; > 10 µM (inactive) with M14. Further, the GI50 in the test on MDA-MB-231, in the test on MOLT-4, in the test on NCI-H226, in the test with NCI-H23, with NCI-H522 and in the test with OVCAR-4 was > 10 µM (inactive) throughout. For the same compound, the GI50 in the test with OVCAR-5, with SK-MEL-28, with SK-OV-3, in the test on SNB-19, in the test with T47D and in the test on TK-10 was > 10 µM (inactive) throughout. Further, the GI50 in the test on UACC-257 is > 10 µM (inactive).
`CCCCCC(=O)OC[n+]1ccc2c(C)c3[nH]c4ccc(OC)cc4c3c(C)c2c1`: the GI50 with ACHN was 0.106 µM (active); in the test with CCRF-CEM it was 0.0805 µM (active); in the test with HCT-15, 0.169 µM; with IGROV-1, 0.234 µM (active); in the test on M14, 0.622 µM (active); with MDA-MB-231, 0.244 µM (active). Further, the GI50 was 0.499 µM (active) with MDA-MB-435; 0.0419 µM (active) in the test on MOLT-4; 0.276 µM (active) with NCI-H226; 0.361 µM (active) in the test on NCI-H23; 0.566 µM (active) in the test on NCI-H522; 0.811 µM (active) with OVCAR-4. Also, the GI50 in the test with OVCAR-5 is 0.556 µM (active); in the test with SK-MEL-28, 0.766 µM (active); in the test with SK-OV-3, 0.628 µM (active); in the test on SNB-19, 0.189 µM (active); in the test on T47D it was 1.02 µM (active); in the test on TK-10, 2.55 µM (inactive). Moreover, the GI50 in the test with UACC-257 is 1.28 µM (inactive).
